“And” between values parts separate entries of the source, which are not always exact repeats. Equal values may be shown once.
System: rat primary hepatocytes
Experiment: Metabolic disposition of [^14C]-Compound 1 and [^14C]-2′-C-methyl guanosine in rat primary hepatocytes (incubation medium, cellular extracts, nucleotide levels)
Assay type: in vitro ADME, Sprague Dawley rat
Procedure: Primary hepatocytes: Freshly isolated cells from animal and human liver were obtained in suspension on ice. Cells were pelleted by centrifugation at 70-75×g (rat) or 95-90×g (monkey and human) and resuspended at 0.8 million cells per mL of platting medium (William's E supplemented with 5% FBS, 0.5% penicillin-streptomycin, 1% L-glutamine, 4 μg/mL insulin and 1 μM dexamethasone). Multi-well collagen I-coated plates (rat tail collagen type I; 12- or 6-well) were then seeded by addition of 1 mL (12-well; 0.8 million cells/well) or 2 mL (6-well; 1.6 million cells/well) of cell suspension. The plates were gently shaken to evenly distribute the cells and placed in an incubator at 37° C. for approximately 4 to 6 hours to allow cells to attach. Once cells were attached, the platting medium was removed and replaced with hepatocyte culture medium (William's E supplemented with penicillin-streptomycin, 1% L-glutamine, 1% insulin-transferrin-selenium and 0.1 μM dexamethasone). Cells were left overnight in an incubator at 37° C. to acclimatize to culture and the medium.
Hepatocyte incubations with radiolabeled Compound 1 and 2′-C-methyl guanosine, both labeled in the C-8 position of the guanine moiety, were conducted at a final volume of 2.0 mL hepatocyte culture medium/well ([…]). Culture medium from overnight incubation of cells was removed and replaced with fresh medium, pre-warmed to 37° C., containing 1 or 10 μM [^14C]-Compound 1 ([…]) or [^14C]-2′-C-methyl guanosine (127 DPM/μmol) from a stock solution in DMSO (final DMSO concentration was 0.1%) or 50% ethanol (final ethanol concentration was 0.2%). After 1, 4, 8 and 24 hours, 0.5-1.0 mL of incubation medium was removed and stored at −20° C. until analysis (described below). The remaining medium was discarded and cell monolayers were carefully washed two times with ice-cold PBS. Following the last wash, all PBS was carefully removed and 1.0 mL of extraction solution (ice-cold 70% methanol) added. Cells were scrapped off and suspended in the extraction solution, transferred to 2 mL polypropylene microfuge tubes and intracellular contents extracted overnight at −20° C.
Preliminary identification of putative metabolites was conducted by comparing the retention time of observed metabolites in incubation medium and cellular extracts with retention times obtained with chemically synthesized standards using the chromatography conditions described below. Further identification of 2′-C-methyl guanosine nucleotides (mono-, di- and triphosphate) was carried out by incubating cellular extract samples with alkaline phosphatase (10 units for 60 min at 37° C.) and comparing the HPLC retention times of the resulting nucleosides with that of authentic 2′-C-methyl guanosine.
Cellular extracts were prepared by centrifugation at 16,000 RCF using an Eppendorf microcentrifuge (Eppendorf, Model 5415D) for 10 min to remove cellular debris. An aliquot of 5-10 μL of the supernatant was added to 5 mL of EcoLite™ (MP, Irvine, Calif.) liquid scintillation cocktail and radioactivity measured by liquid scintillation counting (LSC) using a Beckman Coulter LS6500 multipurpose liquid scintillation counter (Beckman Instruments, Fullerton, Calif.). The remaining sample was then dried using a Labconco refrigerated centrivap concentrator (Labconco, Kansas City, Mo.). Dry extracts were reconstituted in 120 μL of HPLC-grade water and centrifuged at 16,000 RCF using an Eppendorf microcentrifuge for 10 min. Prior to HPLC analysis (described below), radioactivity of the concentrated extracts was measured by LSC using 5 μL aliquots. Extraction recovery was then determined by comparing total radioactivity in extracts before and after drying. The remaining extract was then analyzed by HPLC with online radioactivity detection using a Flow Scintillation Analyzer Radiomatic™ 515TR. Radioactivity in the separated components was quantified by integrating the peaks using Flo-One™ Software (Perkin Elmer Life Sciences). […]

[1] = rat hepatocytes (Rs458), 1 μM [^14C]-Compound 1, 24 h
[2] = rat hepatocytes Rs448, 10 μM [^14C]-2′-C-methyl guanosine, 1 h
[3] = rat hepatocytes Rs448, 10 μM [^14C]-2′-C-methyl guanosine, 4 h
[4] = rat hepatocytes Rs448, 10 μM [^14C]-2′-C-methyl guanosine, 8 h
[5] = rat hepatocytes Rs448, 10 μM [^14C]-2′-C-methyl guanosine, 24 h
[6] = rat hepatocytes Rs458, 1 μM [^14C]-2′-C-methyl guanosine, 1 h
[7] = rat hepatocytes Rs458, 1 μM [^14C]-2′-C-methyl guanosine, 8 h
[8] = rat hepatocytes Rs458, 1 μM [^14C]-2′-C-methyl guanosine, 24 h
[9] = rat hepatocytes Rs458, 10 μM [^14C]-2′-C-methyl guanosine, 1 h
[10] = rat hepatocytes Rs458, 10 μM [^14C]-2′-C-methyl guanosine, 4 h
[11] = rat hepatocytes Rs458, 10 μM [^14C]-2′-C-methyl guanosine, 8 h
[12] = rat hepatocytes Rs458, 10 μM [^14C]-2′-C-methyl guanosine, 24 h

- 2′-C-methyl guanosine nucleotide levels in cellular extracts [1]: 11.0 pmol/million cells
- metabolites observed in cellular extracts (% of total radioactivity) [1]: 6.68%
- metabolites observed in medium (% of total radioactivity) [1]: no Compound 5 was detected and BLD
- metabolites observed in medium (% of total radioactivity) (rat hepatocytes (lots Rs448, Rs458), 10 μM [^14C]-Compound 1, 0 h): BLD
- metabolites observed in medium (% of total radioactivity) (rat hepatocytes (lots Rs448, Rs458), 10 μM [^14C]-Compound 1, 4 h): 5.3% and 3.6%
- metabolites observed in medium (% of total radioactivity) (rat hepatocytes (lots Rs448, Rs458), 10 μM [^14C]-Compound 1, 8 h): 6.1% and 3.3%
- metabolites observed in medium (% of total radioactivity) (rat hepatocytes (lots Rs448, Rs458), 10 μM [^14C]-Compound 1, 24 h): 2.9% and 2.6%
- 2′-C-methyl guanosine nucleotide levels in cellular extracts (rat hepatocytes Rs448, 10 μM [^14C]-2′-C-methyl guanosine, 0 h): 0 pmol/million cells
- 2′-C-methyl guanosine nucleotide levels in cellular extracts [5]: 25.0 pmol/million cells
- Major metabolites observed in cellular extracts (% of total radioactivity) [5]: 2.56 % of total radioactivity
- 2′-C-methyl guanosine nucleotide levels in cellular extracts (rat hepatocytes Rs448, 10 μM [^14C]-Compound 1, 0 h): 0 pmol/million cells
- 2′-C-methyl guanosine nucleotide levels in cellular extracts (rat hepatocytes Rs448, 10 μM [^14C]-Compound 1, 1 h): 43.0 pmol/million cells
- 2′-C-methyl guanosine nucleotide levels in cellular extracts (rat hepatocytes Rs448, 10 μM [^14C]-Compound 1, 4 h): 81.0 pmol/million cells
- 2′-C-methyl guanosine nucleotide levels in cellular extracts (rat hepatocytes Rs448, 10 μM [^14C]-Compound 1, 8 h): 79.0 pmol/million cells
- 2′-C-methyl guanosine nucleotide levels in cellular extracts (rat hepatocytes Rs448, 10 μM [^14C]-Compound 1, 24 h): 39.0 pmol/million cells
- 2′-C-methyl guanosine nucleotide levels in cellular extracts [8]: 5.40 pmol/million cells
- Major metabolites observed in cellular extracts (% of total radioactivity) [8]: 6.83 % of total radioactivity
- 2′-C-methyl guanosine nucleotide levels in cellular extracts (rat hepatocytes Rs458, 10 μM [^14C]-2′-C-methyl guanosine, 0 h): 0 pmol/million cells
- 2′-C-methyl guanosine nucleotide levels in cellular extracts [12]: 88.0 pmol/million cells
- Major metabolites observed in cellular extracts (% of total radioactivity) [12]: 9.39 % of total radioactivity
- 2′-C-methyl guanosine nucleotide levels in cellular extracts (rat hepatocytes Rs458, 10 μM [^14C]-Compound 1, 0 h): 0 pmol/million cells
- 2′-C-methyl guanosine nucleotide levels in cellular extracts (rat hepatocytes Rs458, 10 μM [^14C]-Compound 1, 1 h): 28.0 pmol/million cells
- 2′-C-methyl guanosine nucleotide levels in cellular extracts (rat hepatocytes Rs458, 10 μM [^14C]-Compound 1, 4 h): 88.0 pmol/million cells
- 2′-C-methyl guanosine nucleotide levels in cellular extracts (rat hepatocytes Rs458, 10 μM [^14C]-Compound 1, 8 h): 86.0 pmol/million cells
- 2′-C-methyl guanosine nucleotide levels in cellular extracts (rat hepatocytes Rs458, 10 μM [^14C]-Compound 1, 24 h): 181 pmol/million cells
SMILES: C[C@@]1(O)[C@H](O)[C@@H](COP(=O)(O)O)O[C@H]1n1cnc2c(=O)[nH]c(N)nc21 [Compound 5, [(2R)-2-methyl-β-D-ribofuranosyl]guanine 5′-monophosphate]
- 2′-C-methyl guanosine nucleotide levels in cellular extracts [2]: BLD^a (BLD = below limit of detection (0.02 pmol/million cells))
- Major metabolites observed in cellular extracts (% of total radioactivity) [2]: BLD^a (BLD = below limit of detection (30 DPM))
- 2′-C-methyl guanosine nucleotide levels in cellular extracts [3]: BLD (BLD = below limit of detection (0.02 pmol/million cells))
- Major metabolites observed in cellular extracts (% of total radioactivity) [3]: BLD (BLD = below limit of detection (30 DPM))
- 2′-C-methyl guanosine nucleotide levels in cellular extracts [4]: BLD (BLD = below limit of detection (0.02 pmol/million cells))
- Major metabolites observed in cellular extracts (% of total radioactivity) [4]: BLD (BLD = below limit of detection (30 DPM))
- 2′-C-methyl guanosine nucleotide levels in cellular extracts (rat hepatocytes Rs458, 1 μM [^14C]-2′-C-methyl guanosine, 0 h): BLD (BLD = below limit of detection (0.02 pmol/million cells))
- 2′-C-methyl guanosine nucleotide levels in cellular extracts [6]: BLD (BLD = below limit of detection (0.02 pmol/million cells))
- Major metabolites observed in cellular extracts (% of total radioactivity) [6]: BLD^a (BLD = below limit of detection (30 DPM))
- 2′-C-methyl guanosine nucleotide levels in cellular extracts [7]: BLD (BLD = below limit of detection (0.02 pmol/million cells))
- Major metabolites observed in cellular extracts (% of total radioactivity) [7]: BLD (BLD = below limit of detection (30 DPM))
- 2′-C-methyl guanosine nucleotide levels in cellular extracts [9]: BLD (BLD = below limit of detection (0.02 pmol/million cells))
- Major metabolites observed in cellular extracts (% of total radioactivity) [9]: BLD^a (BLD = below limit of detection (30 DPM))
- 2′-C-methyl guanosine nucleotide levels in cellular extracts [10]: BLD (BLD = below limit of detection (0.02 pmol/million cells))
- Major metabolites observed in cellular extracts (% of total radioactivity) [10]: BLD (BLD = below limit of detection (30 DPM))
- 2′-C-methyl guanosine nucleotide levels in cellular extracts [11]: BLD (BLD = below limit of detection (0.02 pmol/million cells))
- Major metabolites observed in cellular extracts (% of total radioactivity) [11]: BLD (BLD = below limit of detection (30 DPM))
